# Data: US7547676B2, “Antagonist peptides to the C5A chemotactic function of vitamin D binding protein” (The Research Foundation of State University of New York, priority 2004, dated 2009)
# Columns and labels:
# neutrophils [1] = experiment: Quantitative binding of radioiodinated DBP to neutrophils; design: species or system human; conditions: DBP saturated with the ligand; 100 nM 125I-DBP, 37° C. 60 min
# Protocol: Quantitative binding of radioiodinated DBP to neutrophils Purified DBP (200-400 μg) was iodinated using Na-^125I (Dupont-NEN, Wilmington, Del.) as previously described (DiMartino and Kew, 1999). Neutrophils (10^7 cells/sample) were incubated with 100 nM ^125I-DBP in Hank's balanced salt solution (HBSS) containing 0.1% bovine serum albumin (BSA) (assay buffer) in a total volume of 100 μl. Samples were incubated at 37° C. for 60 min after which cells were placed on ice and then washed twice with ice-cold assay buffer (1.0 ml each) and centrifuged for 7 min at 200× g at 2° C. The cell pellets were then counted for total radioactivity in a gamma counter. All samples were assayed in triplicate or quadruplicate.
# [2] = system: Alkaline phosphatase activity on the plasma membrane of viable neutrophils; experiment: Neutrophil alkaline phosphatase assay (DiFMUP); assay type: cell-based, human; conditions: 5×10^6 cells pretreated with 10 nM 1,25(OH)2D3 or 10 μM SOV; untreated 11,107±1335 units
# Protocol: Neutrophil alkaline phosphatase assay Alkaline phosphatase activity on the plasma membrane of viable neutrophils was measured using the fluorescent substrate 6,8-difluoro-4-methylumbelliferyl phosphate (DiFMUP) and the EnzChek Phosphatase Assay Kit (Molecular Probes, Eugene, Oreg.). Neutrophils (5×10^6 cells) were suspended in 50 μl of 0.1M sodium acetate (pH 5.0) and were immediately added to microtiter plates containing 50 μl of 0.2mM DiFMUP substrate and incubated for 5 min at 22° C. in the dark. A standard curve was generated using known amounts of the fluorescent compound 6,8-difluoro-7-hydroxy-4-methylcoumarin. Fluorescence was measured at 358 nm excitation and 455 nm emission using a SpectraMax M2 microtiter plate reader (Molecular Devices, Sunnydale, Calif.).
# neutrophils [3] = experiment: Neutrophil chemotaxis assay, C5a co-chemotactic activity of DBP; assay type: cell-based, human
# Excerpt: Isolation of human neutrophils Neutrophils, serum, and plasma were isolated from the venous blood of healthy, medication-free, paid volunteers who gave informed consent. The Institutional Review Board of Stony Brook University approved this procedure. These procedures have been described in detail previously (Kew et al., 1995a).
# Neutrophil chemotaxis assay Cell movement was quantitated using a 48 well microchemotaxis chamber (Neuroprobe, Cabin John, Md.) and 5.0 μm pore size cellulose nitrate filters (purchased from Neuroprobe) as previously described (Kew et al., 1995a). Cell suspensions and chemotactic factors were prepared and/or diluted in the chemotaxis assay buffer (Hank's balanced salt solution supplemented with 10 mM HEPES (pH 7.4) and 1% bovine serum albumin). Cell movement was quantitated microscopically by measuring the distance in microns (μm) that the leading front of cells had migrated into the filter according to the method described by Zigmond and Hirsch (1973). In each experiment, five fields per duplicate filter were measured at 400× magnification.
# U937-C5aR cells [4] = experiment: Chemotaxis assay, U937-C5aR cells; assay type: cell-based, human; conditions: Example 6
# Protocol: Neutrophils (4×10^6/ml) or U937-C5aR cells (6×10^6/ml) in chemotaxis buffer were treated for 15 min at 22° C. with 20 μg/ml of anti-CD36, anti-CD47 or anti-gC1qR. Cells were then allowed to respond to either 2.5% complement-activated serum (ZAS) or 1 nM purified C5a for 120 min (FIG. 14A. U937-C5aR cells) or 25 min (Panel B. neutrophils) at 37° C. Numbers represent mean±SEM, n=4.
# U937 cells were originally obtained from the American Type Culture Collection and transfected with either the human C5a receptor or the empty plasmid vector as detailed previously (16). U937 cells were cultured at 37° C., 5% CO2 in RPMI 1640 containing 10% FBS (HyClone) and […] active G418 (Invitrogen Life Technologies) and maintained at a density between 2×10^5 and 1.5×10^6/ml.
# Serum and citrated plasma (1 ml each) were incubated for 1 h at 37° C. with 10 mg of zymosan. Particulate matter was removed by centrifugation (15,000× g) for 5 min at 4° C. using a microfuge. Samples were then aliquoted and frozen at −20° C.
# Cell movement was quantitated using a 48-well microchemotaxis chamber (NeuroProbe) and 5.0-μm pore size cellulose nitrate filters (purchased from NeuroProbe) as previously described (13). Cell movement was quantitated microscopically by measuring the distance in micrometers that the leading front of cells had migrated into the filter according to the method described by Zigmond and Hirsch (17). In each experiment, five fields per duplicate filter were measured at ×400 magnification. The value of the background controls for random cell movement (cells responding to buffer) has been subtracted in all cases so that the data are presented as net movement in micrometers.
# [5] = system: differentiated HL-60 cells; experiment: Chemotaxis assay, differentiated HL-60 cells responding to C5a, C5a plus DBP or ZAS; assay type: cell-based, Human; conditions: differentiated HL-60 cells; 100 pM C5a (FIG. 1: 25-200 pM) plus 50 nM of indicated DBP, 60 min at 37° C
# Protocol: Cells (6×10^6/ml) were resuspended in chemotaxis buffer and treated either with chemotaxis buffer (control), 1 μM of peptide 1 (130-152), or 1 μM of peptide 2 (150-172) for 30 min at room temperature. The chemotactic response of differentiated HL-60 cells to 100 pM C5a alone, C5a plus 50 nM full-length natural DBP or 1% zymosan-activated serum (ZAS) was measured for 60 minutes at 37° C. Numbers represent net cell movement in 60 min, mean±SEM of 3 experiments.
# (§1) Cells and cell culture: Human promyelocytic cell line HL-60 was obtained from ATCC (Rockville, Md.) and cultured in RPMI 1640 medium supplemented with 10% FBS. Differentiation of HL-60 cells was initiated with 250 μM Bt2cAMP for 48 hours.
# Chemotaxis assay. Chemotaxis was performed as described previously (see Kew, R. R. et al., J. Leukoc. Biol. 58, 55-58 (1995)). In brief, 35 μl of C5a (0.01 to 1 nM) in the chemotaxis buffer (HBSS with 1% BSA, 10 mM HEPES) were placed in duplicate in the lower chamber of a 48-well chamber (Neuroprobe, Md.). The lower compartments were covered with a 5 μm pore cellulose nitrate filter and then 50 μl of the cell suspension (2.5×10^5/well) was pipetted into the upper compartments. The chemotactic chamber was incubated for 1 hour at 37° C. in a humidified incubator with 5% CO2. Following incubation, the filter was fixed, stained and mounted on a microscope slide. Cell movement was measured as the distance in microns that the leading front of the cells had migrated into the filter (see Zigmond, S. et al., J. Exp. Med. 137, 387 (1973)).
# [6] = system: differentiated HL-60 cells; experiment: Ligand-induced calcium mobilization (Fluo-3 AM) in differentiated HL-60 cells; assay type: cell-based, Human; conditions: differentiated HL-60 cells incubated 30 min with 50 nM of indicated DBP, then C5a
# Protocol: as §1
# Ligand-induced calcium mobilization. Calcium mobilization studies were performed using the Fluo-3 AM probe as described previously (see Merritt, J. E. et al., Biochem. J. 269, 513-519 (1990)). Differentiated HL-60 cells (1×10^7 cells/ml) were resuspended in HBSS-1% BSA containing 2 μM Fluo-3 AM (Molecular Probes, Eugene, Oreg.) and incubated at 37° C. for 40 minutes. Cells incubated without the dye were used as a control to measure autofluorescence (Fmin). Following the dye uptake, cells were washed twice then suspended at 5×10^6 cells/ml in HBSS containing 1% BSA. Half of the cell suspension was treated with 50 nM DBP for 30 min at room temperature, the other half served as the untreated control. For each measurement, 400 μl of cell suspension (with or without DBP) was added to a cuvette and stimulated with various concentrations of purified C5a at room temperature (22-24° C.). Fluorescence was then measured immediately using a Perkin-Elmer LS-5 fluorometer at 505 nm excitation, 526 nm emission for Fluo-3 AM. Fmax was measured by treating labeled cells with 60 μM digitonin. Intracellular free calcium concentrations were calculated using the following formula: (Ca^2+)=Kd (F−Fmin)/(Fmax−F), where Kd=325 nM for Fluo-3 according to manufacturer (Molecular Probes).
# U937-C5aR cells [7] = experiment: C5a-induced intracellular calcium mobilization in U937-C5aR cells; assay type: cell-based, human; conditions: FIG. 11B, 12; 0.5 μM DBP peptide, 50 nM DBP, 0.1 nM C5a
# Protocol: FIG. 11A and FIG. 11B show the effect of DBP on C5a-induced intracellular calcium mobilization in U937-C5aR cells. U937-C5aR cells (10^7 cells/ml) were resuspended in HBSS-1% BSA containing 2 μM Fluo-3 AM and incubated at 37° C. for 40 minutes. Cells incubated without the dye were used as a control to measure autofluorescence (Fmin). Following the dye uptake, cells were washed twice then suspended at 5×10^6 cells/ml in HBSS containing 1% BSA. For the pretreatment experiments, cells were incubated for 30 min at 22° C. with 50 nM DBP or 0.5 μM DBP peptide 1 (p1). For each measurement, 400 μl of cell suspension was added to a cuvette and stimulated with the indicated concentration of C5a (FIG. 11A) or 0.1 nM C5a (FIG. 11B). Fluorescence was then measured immediately using a Perkin-Elmer LS-5 fluorometer at 505 nm excitation, 526 nm emission for Fluo-3 AM. Fmax was measured by treating labeled cells with 60 μM digitonin. Intracellular free calcium concentrations were calculated using the following formula: (Ca^2+)=Kd (F−Fmin)/(Fmax−F), where Kd=325 nM for Fluo-3 according to manufacturer (Molecular Probes). Data are presented as mean±SEM (n=4-6) of the increase in intracellular calcium concentration.
# U937-C5aR cells (10^7 cells/ml) were resuspended in HBSS-1% BSA containing 2 μM Fluo-3 AM and incubated at 37° C. for 40 minutes. Cells incubated without the dye were used as a control to measure autofluorescence (Fmin). Following the dye uptake, cells were washed twice then suspended at 5×10^6 cells/ml in HBSS containing 1% BSA. Cells were incubated for 30 min at 22° C. with either 50 nM DBP or 0.5 μM DBP peptide. For each measurement, 400 μl of cell suspension was added to a cuvette and stimulated with 0.1 nM purified C5a. Fluorescence was then measured immediately using a Perkin-Elmer LS-5 fluorometer at 505 nm excitation, 526 nm emission for Fluo-3 AM. Fmax was measured by treating labeled cells with 60 μM digitonin. Intracellular free calcium concentrations were calculated using the following formula: (Ca2+)=Kd (F−Fmin)/(Fmax−F), where Kd=325 nM for Fluo-3 according to manufacturer (Molecular Probes)
Molecule,enhancement of C5a-mediated chemotaxis (net cell movement) [5],enhancement of intracellular Ca2+ flux in response to C5a [6],also measured
"C=C1/C(=C\C=C2/CCC[C@]3(C)[C@@H]([C@H](C)CCCC(C)(C)O)CC[C@@H]23)C[C@@H](O)C[C@@H]1O [1,25(OH)2D3, 1,25(OH)2 Vitamin D3]",,,"effect on binding of 125I-DBP to neutrophils (neutrophils [1]): did not alter DBP binding to neutrophils; neutrophil AP activity [2]: not significantly altered; neutrophil chemotaxis to optimal concentrations of C5a, formyl peptide, LTB4 or CXCL8 (IL-8) (neutrophils [3]; 10 nM bound to DBP): does not alter neutrophil chemotaxis; effect on co-chemotactic activity of DBP (neutrophil chemotaxis toward C5a) (neutrophils [3]; ligand bound to DBP, 1,25(OH)2D3 100 nM): completely eliminated the co-chemotactic effect"
"[O-][Cl+2]([O-])O [chlorate, sodium chlorate]",,,"U937-C5aR chemotaxis to C-activated plasma (U937-C5aR cells [4]; 2.5% C-activated plasma): not; U937-C5aR chemotaxis to C-activated serum (U937-C5aR cells [4]; 2.5% C-activated serum): significantly reduces; U937-C5aR chemotaxis to 1 nM purified C5a (net movement) (U937-C5aR cells [4]; treated cells, DBP-independent): 56+/−4.8 μm/120 min"
(1-112): truncated version of DBP domain I expressed in E. coli (LERGRDYEKNKVCKEFSHLGKEDFTSLSLVLYSRKFPSGT),lack enhancing activity,lack enhancing activity,
(1-125): truncated version of DBP domain I expressed in E. coli (LERGRDYEKNKVCKEFSHLGKEDFTSLSLVLYSRKFPSGT),lack enhancing activity,lack enhancing activity,
(1-150): truncated version of DBP domain I expressed in E. coli (LERGRDYEKNKVCKEFSHLGKEDFTSLSLVLYSRKFPSGT),almost the same level of activity as full-length natural DBP,almost the same level of activity as full-length natural DBP,
(1-175): truncated version of DBP domain I expressed in E. coli (LERGRDYEKNKVCKEFSHLGKEDFTSLSLVLYSRKFPSGT),almost the same level of activity as full-length natural DBP,almost the same level of activity as full-length natural DBP,
"EAFRKDPKEYAN [peptide 3, DBP residues 130-141]",,,block of the DBP-enhanced C5a calcium signal (U937-C5aR cells [7]): partially block
Vitamin D,,,effect on binding of 125I-DBP to neutrophils (neutrophils [1]): does not alter its ability to bind to neutrophils
"domain I & II: truncated reDBP, residues 1-378 (LERGRDYEKNKVCKEFSHLGKEDFTSLSLVLYSRKFPSGT)",significantly enhanced,significantly enhanced,
"domain I: truncated reDBP, residues 1-191 (EAFRKDPKEYANQFMWEYST)",significantly enhanced,significantly enhanced,
"peptide 5: DBP residues #135-146, printed as SEQ ID NO: 10; residues match the sequence of SEQ ID NO: 9 (NQFMWEYSTNYG)",,,block of the DBP-enhanced C5a calcium signal (U937-C5aR cells [7]): partially block
